PMC10028264, “Synergistic antifungal interaction of N-(butylcarbamothioyl) benzamide and amphotericin B against Cryptococcus neoformans” (Frontiers in Microbiology, 2023)
In brackets after ≈: the same amount, converted by molar mass.

Key:
[1] = molecular target: T1, cryptococcal urease (Cryptococcus neoformans, UniProt O13465); assay: Urease activity inhibition test (indophenol method, crude protein extract); assay type: biochemical
T1 construct: 100 μL of crude protein extract; endogenous in cells; host or cells: Cryptococcus neoformans ATCC 34872, crude lysate (glass-bead lysis, supernatant)
T1 sequence (O13465 whole entry): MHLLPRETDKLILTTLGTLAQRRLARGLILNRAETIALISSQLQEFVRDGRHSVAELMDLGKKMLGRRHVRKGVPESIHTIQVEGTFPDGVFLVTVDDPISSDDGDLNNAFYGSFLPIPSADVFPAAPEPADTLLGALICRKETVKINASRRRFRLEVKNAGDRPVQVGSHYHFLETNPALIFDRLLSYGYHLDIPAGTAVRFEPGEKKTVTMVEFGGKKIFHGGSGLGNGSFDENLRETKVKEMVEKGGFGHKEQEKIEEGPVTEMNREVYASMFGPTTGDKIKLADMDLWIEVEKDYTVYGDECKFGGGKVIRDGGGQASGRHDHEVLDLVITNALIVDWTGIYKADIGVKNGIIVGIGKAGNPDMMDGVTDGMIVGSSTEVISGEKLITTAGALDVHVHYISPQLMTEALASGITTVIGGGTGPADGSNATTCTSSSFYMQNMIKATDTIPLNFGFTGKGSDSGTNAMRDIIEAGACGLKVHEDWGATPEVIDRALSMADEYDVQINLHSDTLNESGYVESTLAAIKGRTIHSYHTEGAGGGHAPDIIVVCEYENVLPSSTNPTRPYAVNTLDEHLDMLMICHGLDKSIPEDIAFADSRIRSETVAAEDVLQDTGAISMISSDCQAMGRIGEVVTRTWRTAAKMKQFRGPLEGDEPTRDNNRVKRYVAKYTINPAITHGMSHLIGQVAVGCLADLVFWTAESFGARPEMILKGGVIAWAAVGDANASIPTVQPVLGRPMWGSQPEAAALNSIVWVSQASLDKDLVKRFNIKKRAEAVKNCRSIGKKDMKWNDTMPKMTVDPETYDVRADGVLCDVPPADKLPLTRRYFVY
Method: Five colonies of C. neoformans were suspended in 100 μL SD broth and inoculated onto SD agar using a Drigalski spreader, and the culture was incubated at 37°C for 48 h. Afterward, all fungal growth was gently scraped and transferred to conical flasks containing 300 mL of SD broth and incubated with shaking (150 rpm) at 37°C for further 48 h. Cells were centrifuged (6,000 × g, 10 min) and washed three times with distilled water. The protein extraction was performed according to [Moller et al. (2016)] with modifications. Briefly, fungal cells were resuspended in 10 mL of chilled lysis buffer consisting of 100 μM Nα-tosyl-L-lysine chloromethyl ketone hydrochloride (TLCK), 1 mM EDTA, 10% glycerol and 0.15 M phosphate-buffered saline (PBS), pH 8.0. […] Then, the cell debris was removed by centrifugation (6,000 × g, 15 min, 4°C), and the protein content of the resulting supernatant was quantified using the […].
The inhibition of urease activity was evaluated by the indophenol method ([Weatherburn, 1967]). […] The reaction mixtures were incubated for further 10 min at 45°C, and the optical density (OD) was measured at 630 nm. Urease inhibition percentage (I%) was calculated according to the equation: I% = 100–(ODBTU–01/ODcontrol) × 100. […]

[2] = Cytotoxicity, MTT reduction assay, ranges over all cell lines; assay type: cell-based; details: different cell lines
Method: The effect of BTU-01 was analyzed on mammalian epithelial cell lines [HEp-2 CCL-23™ (ATCC), LLC-MK2, VERO CCL81 and HeLa (Merck, Brazil)], and the cytotoxicity was evaluated as described by [Longhi et al. (2016)] with modifications. Briefly, cells were cultured in Dulbecco’s Modified Eagle’s medium (DMEM) supplemented with 10% fetal bovine serum (Invitrogen, Brazil), 2 mM L-glutamine, 100 IU/mL penicillin, 100 μg/mL streptomycin, 1% tylosin in flat-bottomed 96-well microtiter plates, in 5% CO2 at 37°C for 48 h. Then, the medium was carefully removed and fresh medium containing twofold serially diluted BTU-01 (0.095–500.0 μg/mL) was added. The cells were incubated for further 24 h under the same conditions. Cell viability was analyzed by the MTT reduction assay according to the manufacturer’s recommendation. The concentration of the compound needed to inhibit the viable cells up to 50 and 90% by regression analysis corresponds to the 50% (CC50) and 90% (CC90) cytotoxic concentrations, respectively.
The concentration of BTU-01 capable of causing 90% of hemolysis/cytotoxicity was used to calculate the selectivity index (SI) using the following equation: SI = CC90/MIC.

[3] = tested on: Cryptococcus neoformans; assay: Checkerboard broth microdilution assay on planktonic cells; assay type: cell-based; details: both strains (ATCC 34872 and 1172)
Method: The antifungal effect of BTU-01 combined with AmB was evaluated using the checkerboard broth microdilution assay, according to [Scott et al. (1995)]. Twofold serial dilutions of BTU-01 (0.03–1000.0 μg/mL) and AmB (0.000001–16.0 μg/mL) were respectively added across the rows and columns of the U-bottom 96-well microtiter plates. Thereafter, 100 μL (0.5–2.5 × 10^3 CFU/mL) of fungal inoculum was added and the plates were incubated at 37°C for 72 h. The Fractional Inhibitory Concentration (FIC) of each compound was determined by the ratio of the MIC obtained when the compounds were tested in combination and the MIC of the compounds tested individually. The FIC Index (FICI) was calculated from the sum of the FICBTU–01 and FICAmB, and the value was interpreted as: synergism FICI ≤ 0.5, no interaction 0.5 < FICI < 4.0, and antagonism FICI > 4.0 ([Odds, 2003]).

In the case of `CCCCNC(=S)NC(=O)c1ccccc1` [BTU-01, N-(butylcarbamothioyl) benzamide], the IC50 [1] is reported as 226 µM, the CC50 at 24 h ([2]; read-out: CC50, range over cell lines) is reported as 61 to 121 µg/mL (≈ 258 to 513 µM) and the CC90 at 24 h ([2]; read-out: CC90, range over cell lines) is reported as 143 to 244 µg/mL (≈ 603 to 1030 µM). For the same compound, the “decrease in MIC value in combination” value [3] was 16 fold.
